Test results from patent publication US20110152092A1, “Herbicidal compositions comprising flufenacet” (Bayer CropScience AG, priority 2009, published 2011).

Key:
HORVS [1] = assay: Greenhouse trial, PO application, selective post-emergence action on crop (test method 4); format: in vivo, Hordeum vulgare, summer barley; conditions: g of AS/ha: (A) 120, (B) 1200, (C) 120, mixture 120 + 1200 + 120
Experimental: (§1) In the standard design of the test, seeds of various broad-leaved weed and weed grass biotypes (origins) were sown in a 8-13 cm diameter pot filled with natural soil of a standard field soil (loamy silt; non-sterile) and covered with a covering soil layer of about 1 cm. The pots were then cultivated in a greenhouse (12-16 h of light, temperature day 20-22° C., night 15-18° C.) until the time of application. The pots were treated on a laboratory track sprayer with spray liquors comprising the compositions according to the invention, mixtures of the prior art or components used individually. Application of the active compounds or active compound combinations formulated as WG, WP, EC or otherwise was carried out at the appropriate growth stages of the plants. The application rate for the spray application was 100-600 l of water/ha. After the treatment, the plants were returned to the greenhouses.
(§2) About 3 weeks after the application, the soil action or/and foliar action was assessed visually according to a scale of 0-100% in comparison to an untreated comparative group: 0%=no noticeable effect compared to the untreated comparative group; 100%=full effect compared to the untreated comparative group. […]

HORVS [2] = assay: Greenhouse trial, activity with different soil types; format: in vivo, Hordeum vulgare, summer barley; conditions: g of AS/ha: (A) 120, (B) 1200, (C) 90, mixture 120 + 1200 + 90
Experimental: as §1
(§3) About 3 weeks after the application, the soil action or/and foliar action was assessed visually according to a scale of 0-100% in comparison to an untreated comparative group: 0%=no noticeable effect compared to the untreated comparative group; 100%=full effect compared to the untreated comparative group.
(notes: the term “seeds” also includes vegetative propagation forms such as, for example, rhizome pieces; abbreviations used: h light=hours of illumination, g of AS/ha=gram of active substance per hectare, l/ha=liter per hectare, S=sensitive, R=resistant) • 1. Pre-emergence action against weeds: seeds of various broad-leaved weed and weed grass biotypes (origins) were sown in a 8-13 cm diameter pot filled with natural soil of a standard field soil (loamy silt; non-sterile) and covered with a covering soil layer of about 1 cm. The pots were then cultivated in a greenhouse (12-16 h of light, temperature day 20-22° C., night 15-18° C.) until the time of application. The pots were treated at the BBCH stage 00-10 of the seeds/plants on a laboratory track sprayer with spray liquors comprising the compositions according to the invention, mixtures or components used individually, as WG, WP, EC or other formulations. The application rate for the spray application was 100-600 l of water/ha. After the treatment, the plants were returned to the greenhouses and, when required, treated with fertilizer and watered. • 2. Post-emergence action against weeds: seeds of various broad-leaved weed and weed grass biotypes (origins) were sown in a 8-13 cm diameter pot filled with natural soil of a standard field soil (loamy silt; non-sterile) and covered with a covering soil layer of about 1 cm. The pots were then cultivated in a greenhouse (12-16 h of light, temperature day 20-22° C., night 15-18° C.) until the time of application. The pots were treated at various BBCH stages between 11-25 of the seeds/plants, i.e. generally between two to three weeks after the start of the cultivation, on a laboratory track sprayer with spray liquors comprising the compositions according to the invention, mixtures or components used individually, as WG, WP, EC or other formulations. The application rate for the spray application was 100-600 l of water/ha. After the treatment, the plants were returned to the greenhouses and, when required, treated with fertilizer and watered. • 3. […]

TRZAS = assay: Greenhouse trial, PE application with different irrigation variations (test method 6); format: in vivo, Triticum aestivum, summer wheat; conditions: g of AS/ha: (A) 120, (B) 1200, (C) 90, mixture 120 + 1200 + 90
Experimental: as §1, §3
(§4) (notes: the term “seeds” also includes vegetative propagation forms such as, for example, rhizome pieces; abbreviations used: h light=hours of illumination, g of AS/ha=gram of active substance per hectare, l/ha=liter per hectare, S=sensitive, R=resistant) • 1. Pre-emergence action against weeds: seeds of various broad-leaved weed and weed grass biotypes (origins) were sown in a 8-13 cm diameter pot filled with natural soil of a standard field soil (loamy silt; non-sterile) and covered with a covering soil layer of about 1 cm. The pots were then cultivated in a greenhouse (12-16 h of light, temperature day 20-22° C., night 15-18° C.) until the time of application. The pots were treated at the BBCH stage 00-10 of the seeds/plants on a laboratory track sprayer with spray liquors comprising the compositions according to the invention, mixtures or components used individually, as WG, WP, EC or other formulations. The application rate for the spray application was 100-600 l of water/ha. After the treatment, the plants were returned to the greenhouses and, when required, treated with fertilizer and watered. • 2. Post-emergence action against weeds: seeds of various broad-leaved weed and weed grass biotypes (origins) were sown in a 8-13 cm diameter pot filled with natural soil of a standard field soil (loamy silt; non-sterile) and covered with a covering soil layer of about 1 cm. The pots were then cultivated in a greenhouse (12-16 h of light, temperature day 20-22° C., night 15-18° C.) until the time of application. […]

ALOMY = assay: Greenhouse trial, PE application on sensitive and resistant biotypes (test method 8); format: in vivo, Alopecurus myosuroides; conditions: g of AS/ha: (A) 90, (B) 1200, (C) 90, mixture 90 + 1200 + 90, iodosulfuron 10
Experimental: as §1, §3
(§5) (notes: the term “seeds” also includes vegetative propagation forms such as, for example, rhizome pieces; abbreviations used: h light=hours of illumination, g of AS/ha=gram of active substance per hectare, l/ha=liter per hectare, S=sensitive, R=resistant) • 1. Pre-emergence action against weeds: seeds of various broad-leaved weed and weed grass biotypes (origins) were sown in a 8-13 cm diameter pot filled with natural soil of a standard field soil (loamy silt; non-sterile) and covered with a covering soil layer of about 1 cm. The pots were then cultivated in a greenhouse (12-16 h of light, temperature day 20-22° C., night 15-18° C.) until the time of application. The pots were treated at the BBCH stage 00-10 of the seeds/plants on a laboratory track sprayer with spray liquors comprising the compositions according to the invention, mixtures or components used individually, as WG, WP, EC or other formulations. The application rate for the spray application was 100-600 l of water/ha. After the treatment, the plants were returned to the greenhouses and, when required, treated with fertilizer and watered. • 2. Post-emergence action against weeds: seeds of various broad-leaved weed and weed grass biotypes (origins) were sown in a 8-13 cm diameter pot filled with natural soil of a standard field soil (loamy silt; non-sterile) and covered with a covering soil layer of about 1 cm. The pots were then cultivated in a greenhouse (12-16 h of light, temperature day 20-22° C., night 15-18° C.) until the time of application. The pots were treated at various BBCH stages between 11-25 of the seeds/plants, i.e. generally between two to three weeks after the start of the cultivation, on a laboratory track sprayer with spray liquors comprising the compositions according to the invention, mixtures or components used individually, as WG, WP, EC or other formulations. The application rate for the spray application was 100-600 l of water/ha. After the treatment, the plants were returned to the greenhouses and, when required, treated with fertilizer and watered. • 3. Selective pre-emergence action: seeds of various crop species (origins) were sown in a 8-13 cm diameter pot filled with natural soil of a standard field soil (loamy silt; non-sterile) and covered with a covering soil layer of about 1 cm. The pots were then cultivated in a greenhouse (12-16 h of light, temperature day 20-22° C., night 15-18° C.) until the time of application. The pots were treated at the BBCH stage 00-10 of the seeds/plants on a laboratory track sprayer with spray liquors comprising the compositions according to the invention, mixtures or components used individually, as WG, WP, EC or other formulations. The application rate for the spray application was 100-600 l of water/ha. […]

HORVS [3] = assay: Greenhouse trial, pre-sowing application 7 days prior to sowing (test method 5); format: in vivo, Hordeum vulgare, summer barley; conditions: g of AS/ha: (A) 90, (B) 1200, (C) 90, mixture 90 + 1200
Experimental: as §1, §2

AVEFA = assay: as above; format: in vivo, Avena fatua; conditions: g of AS/ha: (A) 90, (B) 1200, (C) 90, mixture 90 + 1200
Experimental: as §1, §2

STEME = assay: Greenhouse trial, activity with different soil types; format: in vivo, Stellaria media; conditions: IU/EC73 soil versus IU soil; g of AS/ha: (A) 120, (B) 1200, (C) 90, mixture 120 + 1200 + 90
Experimental: as §1, §3, §5

HORVS [4] = assay: Greenhouse trial, PE application, selective pre-emergence action on crop (test method 3); format: in vivo, Hordeum vulgare, summer barley; conditions: g of AS/ha: (A) 90, (B) 1200, (C) 90, mixture 90 + 1200
Experimental: as §1, §2

TRZAW = assay: Greenhouse trial, PE application at different sowing depths (test method 9); format: in vivo, Triticum aestivum, winter wheat; conditions: g of AS/ha: (A) 120, (B) 1200, (C) 90, mixture 90 + 1200 + 90
Experimental: as §1, §3, §4

In the case of `O=C(Nc1ccc(F)cc1F)c1cccnc1Oc1cccc(C(F)(F)F)c1` [(C) diflufenican, N-(2,4-difluorophenyl)-2-[3-(trifluoromethyl)phenoxy]-3-pyridinecarboxamide], the “activity on crop plant HORVS (visual, scale 0-100%)” value (HORVS [1]) is reported as 5%, the “activity on crop plant HORVS IU soil (visual, scale 0-100%)” value (HORVS [2]; IU soil) is reported as 0% and the “activity on crop plant HORVS IU/EC73 soil (visual, scale 0-100%)” value (HORVS [2]; IU/EC73 soil) is reported as 0%. The “activity on crop plant TRZAS (visual, scale 0-100%)” value (TRZAS; irrigation from above) was 10%, the “activity on crop plant TRZAS (visual, scale 0-100%)” value (TRZAS; irrigation from below) was 0% and the “activity ALOMY resistant (visual, scale 0-100%)” value (ALOMY; resistant biotype) was 30%. The “activity ALOMY sensitive (visual, scale 0-100%)” value (ALOMY; sensitive biotype) was 30%, the “activity on crop plant HORVS (visual, scale 0-100%)” value (HORVS [3]) was 30% and the “activity AVEFA (visual, scale 0-100%)” value (AVEFA) was 0%. For the same compound, the “Difference of the soil types, STEME” value (STEME) was −57%, the “activity on crop plant HORVS (visual, scale 0-100%)” value (HORVS [4]) was 5% and the “activity on crop plant TRZAW 5 mm (visual, scale 0-100%)” value (TRZAW; sowing depth 5 mm) was 20%. For the same compound, the “activity on crop plant TRZAW 20 mm (visual, scale 0-100%)” value (TRZAW; sowing depth 20 mm) was 20%.
